In patent USRE49735E1 (BRISTOL-MYERS SQUIBB COMPANY, priority 2010, dated 2023):
Several values for one entry are separate records, joined by “and”; a condition that tells them apart may be missing. Equal entries are not always repeated.

Target: human mGluR5A (Homo sapiens, UniProt P41594)
Assay: mGluR5 FLIPR Assay
Assay type: cell-based
Conditions: positive modulator activity; HEK293 (ZF) cells with human mGluR5A and rat GLAST; Ca++ response to ~EC10 glutamate

Sequence of human mGluR5A (P41594 21-1180 isoform P41594-2): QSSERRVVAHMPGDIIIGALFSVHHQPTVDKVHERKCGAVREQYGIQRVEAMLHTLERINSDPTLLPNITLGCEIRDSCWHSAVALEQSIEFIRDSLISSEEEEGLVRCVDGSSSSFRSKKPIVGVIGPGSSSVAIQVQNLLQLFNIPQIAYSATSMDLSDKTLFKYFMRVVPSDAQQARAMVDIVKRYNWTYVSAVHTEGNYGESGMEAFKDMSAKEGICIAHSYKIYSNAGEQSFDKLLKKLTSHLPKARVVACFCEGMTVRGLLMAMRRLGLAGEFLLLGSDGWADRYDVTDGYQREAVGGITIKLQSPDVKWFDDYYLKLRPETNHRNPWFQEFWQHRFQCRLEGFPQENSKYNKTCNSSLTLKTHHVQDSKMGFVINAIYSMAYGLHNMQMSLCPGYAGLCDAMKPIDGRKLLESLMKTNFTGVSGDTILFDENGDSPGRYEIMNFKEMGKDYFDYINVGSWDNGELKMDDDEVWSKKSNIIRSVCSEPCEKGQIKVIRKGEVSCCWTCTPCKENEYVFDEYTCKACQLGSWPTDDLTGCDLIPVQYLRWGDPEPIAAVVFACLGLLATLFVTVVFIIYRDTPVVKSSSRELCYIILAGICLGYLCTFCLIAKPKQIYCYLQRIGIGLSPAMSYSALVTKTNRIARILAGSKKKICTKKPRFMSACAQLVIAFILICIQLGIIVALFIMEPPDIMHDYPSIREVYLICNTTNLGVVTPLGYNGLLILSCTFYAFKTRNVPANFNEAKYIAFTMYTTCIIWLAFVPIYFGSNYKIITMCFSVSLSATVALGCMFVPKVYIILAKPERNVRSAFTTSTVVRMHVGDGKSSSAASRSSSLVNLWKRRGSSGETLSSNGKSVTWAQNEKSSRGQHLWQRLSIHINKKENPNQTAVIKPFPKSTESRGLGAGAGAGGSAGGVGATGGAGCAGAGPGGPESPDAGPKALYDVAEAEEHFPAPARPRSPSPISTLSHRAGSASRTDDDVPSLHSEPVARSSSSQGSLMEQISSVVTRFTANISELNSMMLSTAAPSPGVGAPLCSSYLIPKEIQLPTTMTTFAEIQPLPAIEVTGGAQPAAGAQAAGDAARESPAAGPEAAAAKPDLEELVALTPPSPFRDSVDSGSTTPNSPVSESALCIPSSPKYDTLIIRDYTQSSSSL

COc1cccc([C@H]2OC(=O)N[C@@H]2c2cccc(C#Cc3ccnc(OC)c3)c2)c1 [Example 89, (4R,5R)-5-(3-Methoxyphenyl)-4-(3-((2-methoxypyridin-4-yl)ethnyl)phenyl)oxazolidin-2-one] and COc1cccc([C@H]2OC(=O)N[C@@H]2c2cccc(C#Cc3cccnc3OC)c2)c1 [Example 78, (4R,5R)-5-(3-Methoxyphenyl)-4-(3-((2-methoxypyridin-3-yl)ethynyl)phenyl)oxazolidin-2-one] cannot be ordered by EC50: > 1000 nM for the first, > 1000 nM for the second.

First: O=C1N[C@H](c2cncc(C#Cc3cccnc3)c2)[C@@H](c2cc(F)ccc2F)O1 [Example 186]
Second: O=C1N[C@H](c2cncc(C#Cc3ccc(Cl)c(Cl)c3)c2)[C@@H](c2cc(F)ccc2F)O1 [Example 383, (4R,5R)-4-(5-((3,4-dichlorophenyl)ethynyl)pyridin-3-y1)-5-(2,5-difluorophenyl)oxazolidin-2-one]
The EC50 of the first is lower: < 100 nM for the first, > 1000 nM for the second. The first is the more potent here.

First: C[C@@]1(c2cccc(F)c2)OC(=O)N[C@H]1c1cncc(C#Cc2ccccc2)c1 [Example 221]
Second: O=C1N[C@@H](c2cncc(C#Cc3ccccc3)c2)[C@H](c2ccc(Cl)cc2)O1 (single isomer, unassigned) [Example 359]
The EC50 of the first is higher: > 1000 nM for the first, 100 to 1000 nM for the second.

First: COc1cccc([C@H]2OC(=O)N[C@@H]2c2cccc(C#Cc3cncc(F)c3)c2)c1 [Example 81, (4R,5R)-4-(3-((5-Fluoropyridin-3-yl)ethynyl)phenyl)-5-(3-methoxyphenyl)oxazolidin-2-one]
Second: COc1cccc([C@H]2OC(=O)N[C@@H]2c2cccc(C#Cc3cc(F)cc(F)c3)c2)c1 [Example 123, (4R,5R)-4-(3-((3,5-difluorophenyl)ethynyl)phenyl)-5-(3-methoxyphenyl)oxazolidin-2-one]
The EC50 of the first is lower: < 100 nM for the first, 100 to 1000 nM for the second.

Compared with COc1cccc([C@@H]2OC(=O)N[C@H]2c2cccc(C#Cc3ccc(F)cc3F)c2)c1 [Example 128, (4S,5S)-4-(3-((2,4-difluorophenyl)ethynyl)phenyl)-5-(3-methoxyphenyl)oxazolidin-2-one], COc1cccc([C@H]2OC(=O)N[C@@H]2c2cccc(C#Cc3ccccc3N)c2)c1 [Example 265] is lower in EC50: > 1000 nM for the first, 100 to 1000 nM for the second. The second is the more potent here.

First: O=C1N[C@H](c2cc(C#Cc3cccc(F)n3)cnc2F)[C@@H](c2ccc(F)cc2)O1 [Example 157, (4R,5R)-4-(2-Fluoro-5-((6-fluoropyridin-2-yl)ethynyl)pyridin-3-yl)-5-(4-fluorophenyl)oxazolidin-2-one]
Second: O=C1N[C@H](c2cc(C#Cc3ncccc3F)cnc2F)[C@@H](c2cccc(F)c2)O1 [Example 147, (4R,5R)-4-(2-Fluoro-5-((3-fluoropyridin-2-yl)ethynyl)pyridin-3-yl)-5-(3-fluorophenyl)oxazolidin-2-one]
The EC50 of the first is lower: < 100 nM for the first, > 1000 nM for the second.

Cc1cccc([C@@H]2OC(=O)N[C@H]2c2cccc(C#Cc3ccccc3)c2)c1 (racemic) [Example 99, trans-4-(3-(phenylethynyl)phenyl)-5-m-tolyloxazolidin-2-one] and COc1cccc([C@H]2OC(=O)N[C@@H]2c2cccc(C#Cc3cccnc3)c2)c1 [Example 46] cannot be ordered by EC50: < 100 nM for the first, < 100 nM for the second.

Compared with COc1cccc([C@H]2OC(=O)N[C@@H]2c2cccc(C#Cc3ncccn3)c2)c1 [Example 64, (4R,5R)-5-(3-Methoxyphenyl)-4-(3-(pyrimidin-2-ylethynyl)phenyl)oxazolidin-2-one], COc1cccc([C@H]2OC(=O)N[C@@H]2c2cccc(C#Cc3cccc(OC)n3)c2)c1 [Example 61] is lower in EC50: > 30000 nM for the first, < 100 nM for the second. The second is the more potent here.

Going from C[C@]1(c2cncc(C#Cc3ncccc3F)c2)NC(=O)O[C@@H]1c1ccccc1 [Example 229] to C[C@@]1(c2cncc(C#Cc3ncccc3F)c2)NC(=O)O[C@H]1c1ccccc1 [Example 230], the EC50 rises from < 100 nM to > 1000 nM. The first is the more potent here.

O=C1N[C@@H](c2cccc(C#Cc3cccc(F)c3)n2)[C@H](c2ccc(F)cc2F)O1 (single isomer, unassigned) [Example 312] and O=C1N[C@@H](c2cccc(C#Cc3ccccc3)n2)[C@H](c2c(F)cc(F)cc2F)O1 (single isomer, unassigned) [Example 314] cannot be ordered by EC50: > 3000 nM for the first, > 1000 nM for the second.

O=C1N[C@@H](c2cncc(C#Cc3ccccc3)c2)[C@@H](c2ccncn2)O1 (single isomer, unassigned) [Example 319] and O=C1N[C@@H](c2cncc(C#Cc3ccccc3)c2)[C@@H](c2cc(Cl)ccc2Cl)O1 (single isomer, unassigned) [Example 328] cannot be ordered by EC50: > 1000 nM for the first, > 1000 nM for the second.

Cc1noc([C@@H]2OC(=O)N[C@H]2c2cccc(C#Cc3ccccc3)c2)n1 [Example 167] and O=C1N[C@@H](c2cccc(C#Cc3ccccc3)n2)[C@H](c2cccnc2)O1 (single isomer, unassigned) [Example 366] cannot be ordered by EC50: > 1000 nM for the first, > 1000 nM for the second.

COc1cccc([C@@H]2OC(=O)N[C@H]2c2cncc(C#Cc3csc(C)n3)c2)c1 (single isomer, unassigned) [Example 30] and O=C1N[C@H](c2ccnc(C#Cc3cncc(F)c3)c2)[C@@H](c2cccnc2)O1 [Example 253] cannot be ordered by EC50: > 1000 nM for the first, > 1000 nM for the second.

First: COC(=O)c1ccc(C#Cc2cccc([C@H]3NC(=O)O[C@@H]3c3cccc(OC)c3)c2)cc1 [Example 266]
Second: COc1cccc([C@H]2OC(=O)N[C@@H]2c2cccc(C#Cc3cccc(N(C)C)c3)c2)c1 [Example 58, (4R,5R)-4-(3-((3-(Dimethylamino)phenyl)ethnyl)phenyl)-5-(3-methoxyphenyl)oxazolidin-2-one]
The EC50 of the first is lower: 100 to 1000 nM for the first, > 30000 nM for the second.

Going from O=C1N[C@@H](c2cccc(C#Cc3ccc(F)cc3)n2)[C@H](c2ccccc2)O1 (single isomer, unassigned) [Example 17] to N#Cc1cccc(C#Cc2cncc([C@H]3NC(=O)O[C@@H]3c3ccc(F)cc3)c2)c1 [Example 215], the EC50 falls from > 1000 nM to < 100 nM. The second is the more potent here.

In the case of O=C1N[C@H](c2cncc(C#Cc3ccccc3)c2)[C@H](c2ncco2)O1 (racemic) [Example 337, (±)-(4R,5R)-5-(Oxazol-2-yl)-4-(5-(phenylethynyl)pyridin-3-yl)oxazolidin-2-one], the EC50 is reported as 100 to 1000 nM and 688 nM.
C[C@@]1(c2ccc(F)cc2)OC(=O)N[C@@H]1c1cncc(C#Cc2ccccc2)c1 [Example 205] was tested, and the EC50 was < 100 nM and 2.2 nM.
C[C@]1(c2cncc(C#Cc3ccccc3)c2)NC(=O)O[C@@H]1c1ccccc1 (single isomer, unassigned) [Example 138] was tested, and the EC50 was < 100 nM and 0.43 nM.
With N#Cc1cncc(C#Cc2cncc([C@H]3NC(=O)O[C@@H]3c3cccc(F)c3)c2)c1 [Example 257] the EC50 was 100 to 1000 nM and 164 nM.
